Reference: patent US11878009B2, “Anticancer combination of chidamide and celecoxib salts” (Great Novel Therapeutics Biotech & Medicals Corporation, priority 2019, dated 2024)

Legend:
[1] = Saturation solubility in ddH2O; format: physicochemical; settings: for Saturation & Solubility: ddH2O, 25° C., 100 rpm, 90 minutes, triplicates, mean ± SD; for water solubility (in words): saturation solubility study
Method: Determination of Saturation Solubility of Chidamide-HCl, Chidamide-H2SO4, and Celecoxib-Na Salts. Sample of 5 mg of chidamide-HCl, chidamide-H2SO4, or celecoxib-Na salts was added to 5 ml volumetric flasks containing ddH2O and shook at 100 rpm in an incubator at 25° C. for 90 minutes. The resulting suspension was filtered through a 0.22 μm filter. The concentrations of chidamide-HCl, chidamide-H2SO4, and celecoxib-Na salts were determined spectrophotometrically at 256 nm, 256 nm, and 253 nm, respectively. The saturation solubility of each sample was determined in triplicates and the mean value and standard deviation were reported. Preparation of standard curves is described as below.

[2] = low solubility and high permeability; cited from earlier work

| Saturation & Solubility [1] | water solubility (in words) [1] | Structure (SMILES) | BCS class [2] |
| --- | --- | --- | --- |
| BDL | water-insoluble | Nc1cc(F)ccc1NC(=O)c1ccc(CNC(=O)/C=C/c2cccnc2)cc1 [Chidamide-API, 4-(((E)-3-(pyridin-3-yl)acrylamido)methyl)-N-(2-amino-4-fluorophenyl)benzamide, reference compound] | – |
| BDL | water-insoluble | Cc1ccc(-c2cc(C(F)(F)F)nn2-c2ccc(S(N)(=O)=O)cc2)cc1 [Celecoxib-API, 4-[5-(4-Methylphenyl)-3-(trifluoromethyl)pyrazol-1-yl]benzenesulfonamide, reference compound] | class II |
